Assay: xn = mol fraction of the nth substance listed
Conditions: 101 kPa, Liquid; for speed of sound: Pulse-echo method

C1CCCCC1 [cyclohexane] + COC(=O)c1ccccc1
x2 = 0
Conditions | mass density [kg/m3] | speed of sound [m/s] | viscosity [mPa·s]
303.15 K | 768.3 | 1228 | 0.823
308.15 K | 764.4 | 1208 | 0.772
313.15 K | 760.5 | 1188 | 0.685

CCCCCCC [heptane] + COC(=O)c1ccccc1
x2 = 0
Conditions | mass density [kg/m3] | speed of sound [m/s] | viscosity [mPa·s]
303.15 K | 674.5 | 1116 | 0.375
308.15 K | 670.3 | 1092 | 0.35
313.15 K | 667.2 | 1072 | 0.325

CCCCCC [hexane] + COC(=O)c1ccccc1
x2 = 0
Conditions | mass density [kg/m3] | speed of sound [m/s] | viscosity [mPa·s]
303.15 K | 649.8 | 1048 | 0.283
308.15 K | 645.9 | 1028 | 0.269
313.15 K | 642.2 | 1008 | 0.252

COC(=O)c1ccccc1 [methyl benzoate] + C1CCCCC1
Conditions | mass density, 303.15 K [kg/m3] | mass density, 308.15 K [kg/m3] | mass density, 313.15 K [kg/m3] | speed of sound, 303.15 K [m/s] | speed of sound, 308.15 K [m/s] | speed of sound, 313.15 K [m/s] | viscosity, 303.15 K [mPa·s] | viscosity, 308.15 K [mPa·s] | viscosity, 313.15 K [mPa·s]
x1 = 0.088 | 796.9 | 793 | 789.1 | 1240 | 1220 | 1200 | 0.802 | 0.74 | 0.675
x1 = 0.1777 | 825.9 | 822.1 | 818.2 | 1252 | 1232 | 1212 | 0.82 | 0.757 | 0.704
x1 = 0.2692 | 855.8 | 851.9 | 848.1 | 1264 | 1244 | 1224 | 0.854 | 0.792 | 0.736
x1 = 0.3668 | 887.5 | 883.6 | 879.7 | 1276 | 1260 | 1240 | 0.905 | 0.84 | 0.781
x1 = 0.4667 | 918.8 | 915 | 911.1 | 1292 | 1276 | 1256 | 0.977 | 0.904 | 0.835
x1 = 0.5639 | 950 | 946.1 | 942.2 | 1308 | 1292 | 1276 | 1.076 | 0.999 | 0.932
x1 = 0.6675 | 981.7 | 978 | 974.1 | 1324 | 1308 | 1292 | 1.181 | 1.09 | 1.004
x1 = 0.7727 | 1013.3 | 1009.5 | 1005.5 | 1340 | 1324 | 1312 | 1.308 | 1.197 | 1.097
x1 = 0.8859 | 1046.1 | 1042.2 | 1038.3 | 1360 | 1344 | 1332 | 1.478 | 1.363 | 1.234
x1 = 1 | 1078.3 | 1074.4 | 1070.3 | 1380 | 1364 | 1348 | 1.667 | 1.514 | 1.376

Reference: the NIST ThermoML archive (doi:10.1021/je9006597)
